Measured values reported in US20240074473A1, “METHOD FOR INDUCING HYPERTROPHIC MUSCLE FIBERS FOR INDUSTRIAL MEAT PRODUCTION” (Yeda Research and Development Co. Ltd., priority 2021, published 2024).

Legend:
primary mouse myoblasts [1] = experiment: qRT-PCR gene expression in primary mouse myoblasts; format: cell-based
Protocol: (§1) Quantitative real-time PCR (qRT-PCR). Total RNA was isolated using Tri-Reagent (SIGMA) according to the manufacturer's instructions. cDNA was synthesized with the High Capacity cDNA Reverse Transcription Kit (Applied Biosystems according to the manufacturer's instructions. qRT-PCR was performed with SYBR green PCR Master Mix (Applied Biosystems) using the StepOnePlus Real-time PCR system (Applied Biosystems). Values for specific genes were normalize to either Gapdh or Hprt housekeeping control as indicated in Figure legend. Expression was calculated using the ddCT method.
First passage primary mouse derived myoblast were seeded in proliferation media, in equal number in 12-well tissue culture plates that were precoated with 10% Matrigel solution. Following 24 hours to allow for complete attachment, culture media was washed and replaced either with fresh proliferation media (PM), PM supplemented with 1 uM SCH 772984 (ERKi) or differentiation media (DM). After 24 hrs, cells were lysed and RNA was collected. Gene expression analysis was carried out using SYBR green qRT-PCR analysis.

ERK1/2 and RXR = experiment: Co-immunoprecipitation of ERK1/2 and RXR in myoblasts; format: cell-based, mouse; details: 1 uM, 4 hours, nuclear lysates
Protocol: Co-immunoprecipitation (Co-IP). Primary myoblasts derived from gastrocnemius muscle were pooled from 10 mice and plated on 15 cm dishes and allowed to adhere for 24 hours. The following day, Bio-Amf2 media was replaced supplemented either with DMSO or 1 uM SCH772984. […] 1 mg of protein was used to immunoprecipitate ERK1/2 using 2 ug of ERK1/2Antibody (Sigma M7927). Rabbit IgG was used as a control. […] 1% of original volume of lysate loaded into IP reaction was loaded into the gel as input control. Membranes were blotted with RXR antibody (SCBT sc-553).

bovine myoblasts = experiment: Immunofluorescence intensity of sarcomeric proteins in bovine myotubes; format: cell-based; details: 96 hours post-treatment
Protocol: Shown is immunofluorescence staining of the sarcomeric components of myosin heavy chain (MyHC), alpha-actinin, and Tropoinin T at 96 hours post treatment either with proliferation media (PM), differentiation media (DM), or with 1 uM SCH 772984 (ERKi).

primary mouse myoblasts [2] = experiment: Fusion index of primary mouse myoblasts (MyHC immunostaining); format: cell-based; details: first passage mouse primary myoblasts, 24 hours; 1 μM ERKi in growth medium vs. DM
Protocol: Isolation of and treatment of primary myoblasts. Primary mouse myoblasts were isolated from gastrocnemius muscle using trypsin-tissue dissociation. Briefly, muscle tissues were incubated in Trypsin B (0.25%, Biological Industries) and subjected to mechanical dissociation with a serological pipet. Supernatants were strained and centrifuged. Pellets were grown resuspended in BioAmf-2 media (Biological Industries, Israel) and plated on 10% Matrigel (BD Biosciences)-coated plates at 37° and 5% CO2. For all in vitro experiments, proliferation medium was Bio-Amf2 (Biological Industries, Israel) and Differentiation medium (DM) was DMEM 2% Horse Serum (HS) with 1% Pen/Strep. For fusion assays, cells were trypsinized with Trypsin C (0.05%, Biological Industries) and subjected to two rounds of preplating on uncoated plates to reduce the number of fibroblasts. Cells were plated at a density of 8×10^3 per well in 10% Matrigel-coated 96-well plates in proliferation medium for 24 hours. The following day, proliferation media was replaced either with proliferation media or with DM containing DMSO (Ctrl) or 1 μM ERK1/2 inhibitor (ERKi; SCH772984, Cayman Chemicals), […] RXR antagonist (RXRi; HX-531, Cayman Chemicals), […] Ryanodine receptor antagonist (RYRi; Dantrolene, Cayman Chemicals), 5 μM CaMKII inhibitor (CaMKIIi; KN93, Cayman Chemicals), or with DM for controls.
(§2) Immunofluorescence staining. First passage primary myoblasts isolated from various strains (indicated in figure legends) were plated in 96-well plates or chamber slides and treated as previously described. The cells were fixed with ice cold 4% PFA in PBS for 10 minutes, permeabilized with 0.5% Triton X-100 in PBS for 6 minutes, and blocked in PBS with 0.025% tween, 10% normal horse serum and 10% normal goat serum for 1 hour at room temperature. Primary antibody incubation was done in blocking buffer overnight at 4 degrees, with the following antibodies: Myosin Heavy Chain (MyHC, MF20, DSHB hybridoma supernatant 1:10, or MY-32 ABCAM ab51263 1:400), Myogenin (MYOG sc-13137 SCBT 1:200), pHistone 3 (PH3, ab47297 ABCAM 1:1000), Ki-67 (Cell Marque #275R), RYR (ab2868 ABCAM 1:100), and pCaMKII (SIGMA SAB4504356 1:100). Cells were washed 3 times in PBS with 0.025% tween and then incubated with appropriate secondary antibodies in PBS 1 hour. Where indicated, nuclei were either labeled with DAPI (SIGMA D9542, 5 ug/ml) or Hoechst 33342 (Thermo scientific #62249, 1:2000). Fixed cells at 24 hours post treatment with indicated inhibitors were imaged using the Nikon Eclipse Ti2 microscope (further described in microscopy section). All analysis was performed on at least 1000 nuclei. […]
Quantification of fusion index. Following immunostaining and imaging, a fusion index was quantified by manually identifying nuclei found in a MyHC positive cell with at least 2 nuclei. Then the values were expressed as a percentage of the total nuclei per field. Briefly, in Figures where fusion index is stratified into subgroups of fiber size, the nuclei number in MyHC positive cell was manually quantified in a given field and stratified into groups of mononucleated, bi-nucleated myotubes, myotubes with 3-10 nuclei and myotubes with greater than 10 nuclei. […] Fields were analyzed hourly, and nuclei per cell was quantified and stratified into mononucleated, bi-nucleated, tri-nucleated and cells with ≥4 nuclei.

primary mouse myoblasts [3] = experiment: Proliferation markers KI-67 and pH3 staining in primary mouse myoblasts; format: cell-based; details: 1 μM ERKi, 24 hours
Protocol: as §2

chicken myoblasts = experiment: qRT-PCR gene expression in chicken myoblasts; format: cell-based
Protocol: as §1
Chicken primary derived myoblasts were used as a model to evaluate the efficiency of SCH772984 as the ERKi, compared to conventional differentiation medium (DM) for the purpose of producing muscle (meat) in tissue culture conditions. Chicken myoblasts were isolated from chicken embryos and expanded in proliferation medium. When sufficient cell numbers were acquired, cells were seeded on tissue culture plates and allowed to adhere for 24 hours. Then medium was changed to either PM supplemented with ERKi or DM. At 24-hours post treatment, the cells that received ERKi were replenished with fresh PM (without the addition of more ERKi), and DM treated cells were replenished with fresh DM. Media was replaced daily over a period of 72 hours.

**Q.** With O=C(Nc1ccc2[nH]nc(-c3ccncc3)c2c1)[C@@H]1CCN(CC(=O)N2CCN(c3ccc(-c4ncccn4)cc3)CC2)C1 [SCH772984] as the compound, how does the “Expression of Ryr1, Ryr3, SERCA1/2, Orai and STIM” value (primary mouse myoblasts [1]; ERKi 24 hrs vs Ctrl) read?
**A.** Its value is “upregulated”.

**Q.** What about the “Expression of differentiation and fusion factors MyoD, MyoG, Mymk, Mymx” value (primary mouse myoblasts [1]; ERKi in growth medium, time course) of the same compound?
**A.** The value was “upregulated”.

**Q.** And the “Expression of maturation markers myosin heavy chain and troponin compared to DM” value (primary mouse myoblasts [1]; mouse myoblasts, 1 uM ERKi in PM, 24 hrs)?
**A.** Its value is “stronger expression”.

**Q.** And the “RXR immunoprecipitated with ERK1/2 (interaction)” value (ERK1/2 and RXR)?
**A.** The value was “attenuated”.

**Q.** And the “Maturation markers (sarcomeric proteins MyHC, actinin, troponin signal intensity) compared to DM” value (bovine myoblasts)?
**A.** Its value is “increased”.

**Q.** What about the “Fusion index (fraction of nuclei in differentiated MyHC+ cells)” value (primary mouse myoblasts [2]) of the same compound?
**A.** Its value is 90.5%.

**Q.** What about the “Cell cycle (KI-67 and phosphorylated Histone 3 staining)” value (primary mouse myoblasts [3]) of the same compound?
**A.** Its value is “undergo cell-cycle arrest”.

**Q.** And the “Gene expression of maturation/differentiation markers mrf4, myh1, myh2, tnnt3 compared with DM” value (chicken myoblasts)?
**A.** The value was “elevated gene expression”.

**Q.** And the “Downregulation of Myf5 expression compared to DM” value (chicken myoblasts; 72 hour timecourse)?
**A.** The value was “stronger across all time points”.

**Q.** What about the “Pax7 RNA expression” value (chicken myoblasts; 72 hour timecourse) of the same compound?
**A.** The value was “reduction”.
